Measured values as given in patent US12031897B2, “Target-locking single-molecule nanoscopy” (Memorial Sloan Kettering Cancer Center, priority 2019, dated 2024).

Experiments:
[1] = tested on: Sox2 foci at the Pou5f1 locus; test: Sox2 cluster signal at Pou5f1 upon inhibition (live-cell confocal/STED scans); format: cell-based, mouse; conditions: 1 μM JQ1 or 10 μM Flavopiridol
Source text: Contrary to Brd4, Med22 and Cdk9, Sox2 clustering persists through transcription inhibition by either JQ1 or FVP (FIG. 8D). The differential sensitivities between factors and modes of transcription inhibition unveil a hierarchy of molecular transactions that control Pou5f1 transcription: Sox2 binding occurs upstream of Cdk9/Med22/Brd4 recruitment and accumulation of all of 4 regulatory factors occurs upstream of Pol II release into productive elongation. […] For real-time confocal and STED imaging, example implementations may program the wave generator to scan 2 μm×2 μm or 1 μm×1 μm xy areas in 0.8 sec or 0.2 sec respectively. 3D scanning was performed (via, e.g., detection system 150) by acquiring 5 xy scans while moving the stage by 0.5 μm in z between scans. TTL pulses corresponding to single-photon events from the APDs, together with the trigger pulses from the wave generator were detected using a field-programmable gate array (FPGA) data acquisition system (National Instruments, PCIe-7852R). Before imaging, cells were seeded onto 8-chamber coverglass (LabTek, 155411) coated with 5 μg/ml laminin (BioLamina LN511), in -2i media (OMG) or +2i media (NMG) and appropriate drugs. For SiR staining, cells were labeled with media containing 0.3 μM SiR-BG for 10 mins, at 37° C., followed by three washes with new media. Targeted integration of SNAP-tag in the endogenous Sox2, Cdk9, Brd4 and Med22 genes. To generate OMG or NMG SNAP-Sox2 targeted cells, OMG-1 or NMG mESCs (1×106) were transfected with 10 μg SNAP-Sox2 donor vector and 0.6 μg […] vector. 10 days after transfection, the cells were trypsinized, labeled with 0.3 μM SiR-BG for 10 mins, rinsed three times with new media, followed by immediate fluorescence-activated cell sorting (FACS). All the SiR-positive cells were collected, expanded for 2 weeks, trypsinized, labeled with SiR-BG and sorted again. Almost 100% SNAP positive pools were obtained from the second round of sorting and individual clones were picked and expanded. Homozygous clones (dubbed “OMG SNAP-Sox2 clone 8” and NMG SNAP-Sox2 clone 3'' respectively) with both Sox2 alleles correctly targeted with SNAP-tag integrations and that show SiR nuclear staining were selected for all further experiments.

[2] = target: T1, Brd4 foci at the Pou5f1 locus (Mus musculus, UniProt Q9ESU6); test: Brd4 cluster signal at Pou5f1 upon inhibition (live-cell confocal/STED scans); format: cell-based; conditions: for Brd4 signal at Pou5f1 upon inhibition: 1 μM JQ1 (within 1 min) or 10 μM Flavopiridol
T1 construct: integrating a SNAP-tag at the N-terminus of the endogenous Brd4; endogenous in cells; host or cells: mouse ESCs OMG-1, homozygous SNAP-Brd4 knock-in clone 9 (printed as 'OMG SNAP-Cdk9 clone 9')
Description: For real-time confocal and STED imaging, example implementations may program the wave generator to scan 2 μm×2 μm or 1 μm×1 μm xy areas in 0.8 sec or 0.2 sec respectively. 3D scanning was performed (via, e.g., detection system 150) by acquiring 5 xy scans while moving the stage by 0.5 μm in z between scans. TTL pulses corresponding to single-photon events from the APDs, together with the trigger pulses from the wave generator were detected using a field-programmable gate array (FPGA) data acquisition system (National Instruments, PCIe-7852R).
Before imaging, cells were seeded onto 8-chamber coverglass (LabTek, 155411) coated with 5 μg/ml laminin (BioLamina LN511), in −2i media (OMG) or +2i media (NMG) and appropriate drugs. For SiR staining, cells were labeled with media containing 0.3 μM SiR-BG for 10 mins, at 37° C., followed by three washes with new media.
To generate OMG or NMG SNAP-Brd4 targeted cells, OMG-1 or NMG mESCs (1×106) were transfected with 10 μg SNAP-Brd4 donor vector and 0.6 μg espCas9-gRNA-Brd4 vector. 10 days after transfection, the cells were trypsinized, labeled with SiR-BG and subjected to FACS, generating a first-round SiR-positive pool. This pool was then expanded, stained with SiR-BG and subjected to second FACS round and individual clones were picked and expanded.

[3] = tested on: Pol II (FLAG-SNAP-Rpb1) at the Pou5f1 locus; test: ChIP-qPCR of Pol II at the Pou5f1 locus after flavopiridol treatment (mESCs); format: cell-based, mouse; conditions: 10 μM flavopiridol; by the 5-minute and 12.5-minute time points respectively
Description: mESCs. Confluent 15 cm dishes (˜10×10^6 OMG SNAP-Rpb1 clone 3 cells) were treated with 10 μM Flavopiridol or DMSO for the indicated times. Methanol-free formaldehyde (Thermo Fisher) was then directly added to the media to 1% v/v final concentration, and dishes were immediately placed on a rotator/shaker for 10 min at RT. Formaldehyde was quenched with 125 mM glycine for 5 min at RT, and cells were scraped and collected with centrifugation (800×g, 5 min at 4° C.) and washed twice with cold PBS. Cells were lysed with SDS lysis buffer (50 mM Tris-HCl pH 8, 10 mM EDTA, 1% SDS) containing protease inhibitors, and placed on ice for 10 min. Volume equivalent to 2×10^6 cells was sonicated to shear the chromatin (Branson SFX 150), and cleared using centrifugation (12,000 g, 10 min at 4° C.). The supernatant was diluted 1:10 in dilution buffer (0.01% SDS, 1.1% Triton X-100, 1.2 mM EDTA, 16.7 mM Tris-HCl pH 8, 167 mM NaCl)+protease inhibitors, pre-cleared using magnetic Protein G beads (Thermo Fisher Scientific 10003 D), for ˜2 hr at 4° C., cleared by separating the beads with a magnet, and 2% of the pre-cleared supernatant was kept at −20° C. as input. […] Eluted chromatin was analyzed with qPCR, using primer pairs specific for different Pou5f1/Oct4 regions.

Row | Structure (SMILES) | Sox2 clustering at Pou5f1 upon transcription inhibition [1] | Brd4 signal at Pou5f1 upon inhibition [2] | Hill equation n, relative Brd4 signal at Pou5f1 vs. [JQ1] ([2]; Pou5f1) | Pol II ChIP signal at Pou5f1 gene body and 3'UTR regions [3]
1 | Cc1sc2c(c1C)C(c1ccc(Cl)cc1)=N[C@@H](CC(=O)OC(C)(C)C)c1nnc(C)n1-2 [JQ1] | persists | drop sharply | 1.3±0.3 | –
2 | CN1CC[C@H](c2c(O)cc(O)c3c(=O)cc(-c4ccccc4Cl)oc23)[C@H](O)C1 [flavopiridol] | persists | not lost | – | significant and near-complete losses
